Assay results published in patent publication US12479843B2, “Spiro ring-containing quinazoline compounds” (WIGEN BIOMEDICINE TECHNOLOGY (SHANGHAI) CO., LTD., priority 2019, dated 2025).

Key:
[1] = test system: H358 cells; experiment: Antiproliferative activity against H358 cells (Cell Titer Glow, ultra-low attachment plate); assay type: cell-based; conditions: Homo sapiens, NCI-H358, 72 h, 96-well ultra-low attachment plate, three days after addition of compound, Cell Titer Glow
Protocol: 2500 H358 cells were seeded in a 96-well ultra-low attachment plate (corning, 7007). After one day of growth, a serially diluted compound (a maximum concentration of 5 μM, 5-fold dilution, a total of five doses) was added. Three days after the addition of the compound, Cell Titer Glow (Promega, G9681) was added to evaluate pellet growth, and the IC50 value was calculated.

[2] = test system: pERK level in H358 cells; experiment: pERK and ERK protein content assay in H358 cells (ELISA); assay type: cell-based; conditions: Homo sapiens, NCI-H358, compound 1 μM, 24 h, pERK/ERK ratio compared with DMSO group, read-out: Inhibition rate (%) of pERK level
Method in brief: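 Percent inhibition of pERK relative to DMSO, from the ELISA pERK/ERK ratio in lysed H358 cells. Compound applied at 1 μM for 24 h after one day of growth.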

Row | SMILES | IC50 [1] [nM] | inhibition at 1 µM [2] [%]
1 | C=CC(=O)N1CC2(CCN(c3nc(N4CC5(CC(F)C5)C4)nc4c(OCC(F)(F)F)c(-c5c(C)ccc6[nH]ncc56)c(C5CC5)cc34)CC2)C1 [Compound 284] | < 300 | > 90
2 | C=C(F)C(=O)N1CC2(CCN(c3nc(OC4CC5(C4)CN(CCOC)C5)nc4c(OCC(F)(F)F)c(-c5c(C)ccc6[nH]ncc56)c(C5CC5)cc34)CC2)C1 [Compound 126] | < 300 | > 90
3 | C=C(F)C(=O)N1CC2(CCN(c3nc(OC4CCN(CCOC)CC4)nc4c(OCC(F)(F)F)c(-c5c(F)cccc5F)c(C5CC5)cc34)CC2)C1 [Compound 54] | < 300 | > 90
4 | C=CC(=O)N1CC2(CCN(c3nc(N4CC(N5C[C@@H](C)[C@@H](O)C5)C4)nc4c(OCC(F)(F)F)c(-c5c(C)ccc6[nH]ncc56)c(C5CC5)cc34)CC2)C1 [Compound 265] | < 300 | > 90
5 | C=CC(=O)N1CC2(CCN(c3nc(N4CC(N5CC[C@H](F)C5)C4)nc4c(OCC(F)(F)F)c(-c5c(C)ccc6[nH]ncc56)c(C5CC5)cc34)CC2)C1 [Compound 172] | < 300 | > 90
6 | C=CC(=O)N1CC2(CCN(c3nc(OC4CCN(CCOC)CC4)nc4c(OCC(F)(F)F)c(-c5ccccc5C(F)(F)F)c(C5CC5)cc34)CC2)C1 [Compound 55] | < 300 | > 90
7 | C=CC(=O)N1CC2(CCN(c3nc(N4CC(N5CC(S(C)(=O)=O)C5)C4)nc4c(OCC(F)(F)F)c(-c5c(C)ccc6[nH]ncc56)c(C5CC5)cc34)CC2)C1 [Compound 241] | 300 to 1000 | 50 to 90
8 | C=C(F)C(=O)N1CC2(CCN(c3nc(N4CCC5(CCN(CCOC)C5)CC4)nc4c(OCC(F)(F)F)c(-c5c(C)ccc6[nH]ncc56)c(C5CC5)cc34)CC2)C1 [Compound 106] | 300 to 1000 | 50 to 90
9 | C=CC(=O)N1CC2(CCN(c3nc(N4CC(N5CCC[C@@H]5C#N)C4)nc4c(OCC(F)(F)F)c(-c5c(C)ccc6[nH]ncc56)c(C5CC5)cc34)CC2)C1 [Compound 249] | 300 to 1000 | 50 to 90
10 | C=CC(=O)N1CC2(CCN(c3nc(N4CC5(CCCO5)C4)nc4c(OCC(F)(F)F)c(-c5c(C)ccc6[nH]ncc56)c(C5CC5)cc34)CC2)C1 [Compound 279] | < 300 | > 90
11 | C=CC(=O)N1CC2(CCN(c3nc(N4CC5(CCN(CCOCC)CC5)C4)nc4c(OCC(F)(F)F)c(-c5c(C)ccc6[nH]ncc56)c(C5CC5)cc34)CC2)C1 [Compound 93] | < 300 | > 90
12 | C=C(F)C(=O)N1CC2(CCN(c3nc(OC4CCN(CCOC)CC4)nc4c(OCC(F)(F)F)c(-c5c(N)cccc5F)c(C5CC5)cc34)CC2)C1 [Compound 48] | 300 to 1000 | > 90
13 | C=CC(=O)N1CC2(CCN(c3nc(N4CC[C@@H](N5CC[C@H](OC)C5)C4)nc4c(OCC(F)(F)F)c(-c5c(C)ccc6[nH]ncc56)c(C5CC5)cc34)CC2)C1 [Compound 196] | < 300 | > 90
14 | C=CC(=O)N1CC2(CCN(c3nc(N4CCC(N5CCCC5)CC4)nc4c(OCC(F)(F)F)c(-c5c(C)ccc6[nH]ncc56)c(C5CC5)cc34)CC2)C1 [Compound 216] | < 300 | > 90
15 | C=C(F)C(=O)N1CC2(CCN(c3nc(N4CC(N(C)CCOC)C4)nc4c(OCC(F)(F)F)c(-c5c(C)ccc6[nH]ncc56)c(C5CC5)cc34)CC2)C1 [Compound 141] | < 300 | > 90
16 | C=C(F)C(=O)N1CC2(CCN(c3nc(OC4CCN(C5COC5)CC4)nc4c(OCC(F)(F)F)c(-c5c(C)ccc6[nH]ncc56)c(C5CC5)cc34)CC2)C1 [Compound 62] | < 300 | > 90
17 | C=CC(=O)N1CC2(CCN(c3nc(N4CC5(CC(N6CCC(C)C6)C5)C4)nc4c(OCC(F)(F)F)c(-c5c(C)ccc6[nH]ncc56)c(C5CC5)cc34)CC2)C1 (stereo not drawn) [Compound 292] | < 300 | > 90
18 | C=CC(=O)N1CC2(CCN(c3nc(N4CC(N5CCCC5)C4)nc4c(OCC(F)(F)F)c(-c5c(C)ccc6[nH]ncc56)c(C(=C)C)cc34)CC2)C1 [Compound 321] | < 300 | > 90
19 | C=Cc1cc2c(N3CCC4(CC3)CN(C(=O)C(=C)F)C4)nc(OC3CCN(CCOC)CC3)nc2c(OCC)c1-c1c(C)ccc2[nH]ncc12 [Compound 4] | < 300 | > 90
20 | C=CC(=O)N1CC2(CCN(c3nc(OC4CCN(CCOC)CC4)nc4c(N5CCC5)c(-c5c(C)ccc6[nH]ncc56)c(C5CC5)cc34)CC2)C1 [Compound 8] | 300 to 1000 | 50 to 90
21 | C=CC(=O)N1CC2(CCN(c3nc(N4CC(N5CC(N(C)C)C5)C4)nc4c(OCC(F)(F)F)c(-c5c(C)ccc6[nH]ncc56)c(C5CC5)cc34)CC2)C1 [Compound 244] | < 300 | > 90

Row | SMILES | IC50 [1] [nM] | inhibition at 1 µM [2] [%]
22 | C=CC(=O)N1CC2(CCN(c3nc(N4CC5(CCN(CCOC)CC5)C4)nc4c(OCC(F)(F)F)c(-c5c(C)ccc6[nH]ncc56)c(C5CC5)cc34)CC2)C1 [Compound 91] | < 300 | > 90
23 | C=CC(=O)N1CC2(CCN(c3nc(N4CC(N5CC(C)(O)C5)C4)nc4c(OCC(F)(F)F)c(-c5c(C)ccc6[nH]ncc56)c(C5CC5)cc34)CC2)C1 [Compound 240] | < 300 | > 90
24 | C=CC(=O)N1CC2(CCN(c3nc(N4CC(N5CCCC5)C4)nc4c(OCC(F)(F)F)c(-c5c(C)c(F)cc6[nH]ncc56)c(C=C)cc34)CC2)C1 [Compound 224] | < 300 | > 90
25 | C=CC(=O)N1CC2(CCN(c3nc(OC4CCN(CCOC)CC4)nc4c(OCC(F)(F)F)c(-c5cc(O)ccc5Cl)c(C5CC5)cc34)CC2)C1 [Compound 58] | < 300 | > 90
26 | C=CC(=O)N1CC2(CCN(c3nc(N4CC(N(C)CC)C4)nc4c(OCC(F)(F)F)c(-c5c(C)ccc6[nH]ncc56)c(C5CC5)cc34)CC2)C1 [Compound 165] | < 300 | > 90
27 | C=C(F)C(=O)N1CC2(CCN(c3nc(N4CC5(CCN(C6CC6)CC5)C4)nc4c(OCC(F)(F)F)c(-c5c(C)ccc6[nH]ncc56)c(C5CC5)cc34)CC2)C1 [Compound 80] | 300 to 1000 | 50 to 90
28 | C=CC(=O)N1CC2(CCN(c3nc(N4CCC5(CC4)CC(N)C5)nc4c(OCC(F)(F)F)c(-c5c(C)ccc6[nH]ncc56)c(C5CC5)cc34)CC2)C1 [Compound 162] | < 300 | > 90
29 | C=CC(=O)N1CC2(CCN(c3nc(OC4CCS(=O)(=O)C5(CC5)C4)nc4c(OCC(F)(F)F)c(-c5c(C)ccc6[nH]ncc56)c(C5CC5)cc34)CC2)C1 (stereo not drawn) [Compound 310] | 300 to 1000 | 50 to 90
30 | C=CC(=O)N1CC2(CCN(c3nc(N4CC(N5C[C@@H](O)[C@@H](F)C5)C4)nc4c(OCC(F)(F)F)c(-c5c(C)ccc6[nH]ncc56)c(C5CC5)cc34)CC2)C1 [Compound 262] | < 300 | > 90
31 | C=CC(=O)N1CC2(CCN(c3nc(N4CC(N5CC[C@@H](C)C5)C4)nc4c(OCC(F)(F)F)c(-c5c(C)ccc6[nH]ncc56)c(C5CC5)cc34)CC2)C1 [Compound 248] | < 300 | > 90
32 | C=CC(=O)N1CC2(CCN(c3nc(OC4CCN(CCOC)CC4)nc4c(OCC(F)(F)F)c(-c5cc(O)cc6ccccc56)c(C5CC5)cc34)CC2)C1 [Compound 60] | < 300 | > 90
33 | C=CC(=O)N1CC2(CCN(c3nc(N4CCC5(CN(CCOC)C5)C4)nc4c(OCC(F)(F)F)c(-c5c(C)ccc6[nH]ncc56)c(C5CC5)cc34)CC2)C1 [Compound 99] | < 300 | > 90
34 | C=CC(=O)N1CC2(CCN(c3nc(N4CCC5(CCN(C)C5)C4)nc4c(OCC(F)(F)F)c(-c5c(C)ccc6[nH]ncc56)c(C5CC5)cc34)CC2)C1 (stereo not drawn) [Compound 159] | < 300 | > 90
35 | C=C(F)C(=O)N1CC2(CCN(c3nc(OC[C@@H]4COCCN4C)nc4c(OCC(F)(F)F)c(-c5c(C)ccc6[nH]ncc56)c(C5CC5)cc34)CC2)C1 [Compound 116] | 300 to 1000 | 50 to 90
36 | C=CC(=O)N1CC2(CCN(c3nc(N4CC[C@H](N(CC)CC)C4)nc4c(OCC(F)(F)F)c(-c5c(C)ccc6[nH]ncc56)c(C5CC5)cc34)CC2)C1 [Compound 189] | < 300 | > 90
37 | C=CC(=O)N1CC2(CCN(c3nc(N(C)CCN4CC[C@H](OC)C4)nc4c(OCC(F)(F)F)c(-c5c(C)ccc6[nH]ncc56)c(C5CC5)cc34)CC2)C1 [Compound 235] | < 300 | > 90
38 | C=CC(=O)N1CC2(CCN(c3nc(OC4CCS(=O)(=O)CC4C)nc4c(OCC(F)(F)F)c(-c5c(C)ccc6[nH]ncc56)c(C5CC5)cc34)CC2)C1 (stereo not drawn) [Compound 316] | < 300 | > 90
39 | C=CC(=O)N1CC2(CCN(c3nc(N(C)CCN4CC[C@H](C)C4)nc4c(OCC(F)(F)F)c(-c5c(C)ccc6[nH]ncc56)c(C5CC5)cc34)CC2)C1 [Compound 233] | < 300 | > 90
40 | C=CC(=O)N1CC2(CCN(c3nc(N4CCC5(CCN(CCOC)C5)C4)nc4c(OCC(F)(F)F)c(-c5c(C)ccc6[nH]ncc56)c(C5CC5)cc34)CC2)C1 (stereo not drawn) [Compound 160] | < 300 | > 90
41 | C=CC(=O)N1CC2(CCN(c3nc(N4CC(N5C[C@H](O)[C@@H](F)C5)C4)nc4c(OCC(F)(F)F)c(-c5c(C)ccc6[nH]ncc56)c(C5CC5)cc34)CC2)C1 [Compound 261] | < 300 | > 90
42 | C=C(F)C(=O)N1CC2(CCN(c3nc(OC4CC5(C4)CN(C4COC4)C5)nc4c(OCC(F)(F)F)c(-c5c(C)ccc6[nH]ncc56)c(C5CC5)cc34)CC2)C1 [Compound 128] | < 300 | > 90
